Assay results: patent US20140309210A1, “INDAZOLE COMPOUNDS, COMPOSITIONS AND METHODS OF USE THEREOF” (Genentech, Inc., priority 2011, published 2014)
pKi: −log10 of the molar value.

What follows are molecules tested against T1, purified ITK (Invitrogen PV3875) (Homo sapiens, UniProt Q08881) (assay: ITK peptide phosphorylation assay (Caliper LabChip or LCMS)). Settings: Table 1, Examples 141-279.
T1 construct: purchased Invitrogen PV3875
T1 sequence (Q08881 1-620): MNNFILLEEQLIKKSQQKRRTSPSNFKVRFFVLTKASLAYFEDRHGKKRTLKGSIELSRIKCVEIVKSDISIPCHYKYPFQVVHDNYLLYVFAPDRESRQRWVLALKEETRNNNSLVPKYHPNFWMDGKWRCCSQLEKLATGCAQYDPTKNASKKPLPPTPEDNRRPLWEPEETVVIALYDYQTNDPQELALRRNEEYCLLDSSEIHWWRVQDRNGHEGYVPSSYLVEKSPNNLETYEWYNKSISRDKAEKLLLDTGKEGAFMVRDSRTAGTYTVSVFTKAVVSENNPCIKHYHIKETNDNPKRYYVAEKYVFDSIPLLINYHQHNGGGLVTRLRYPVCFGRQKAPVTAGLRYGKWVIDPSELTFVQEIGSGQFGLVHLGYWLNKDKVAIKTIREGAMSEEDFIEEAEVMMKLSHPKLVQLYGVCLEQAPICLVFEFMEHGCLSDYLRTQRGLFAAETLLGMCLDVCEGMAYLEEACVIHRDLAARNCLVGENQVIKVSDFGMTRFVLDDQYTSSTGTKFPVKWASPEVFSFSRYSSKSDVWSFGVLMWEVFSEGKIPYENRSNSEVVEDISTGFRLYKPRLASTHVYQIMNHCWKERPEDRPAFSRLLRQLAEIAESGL
Type: biochemical
Method in brief: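 Ki values come from Morrison quadratic fits of activity versus inhibitor concentration, adjusted for ATP-competitive inhibition against ATP/Km,app. Substrate and phosphopeptide from purified ITK reactions were resolved either microfluidically (Caliper, EDTA stop) or by LC-MS MRM (TCA stop).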

Row | Structure (SMILES) | pKi
1 | O=C(Nc1cnn(Cc2ccccn2)c1)c1n[nH]c2cc(-c3cn[nH]c3)ccc12 [Example 220, 6-(1H-pyrazol-4-yl)-N-[1-(2-pyridylmethyl)py-razol-4-yl]-1H-indazole-3-carboxamide] | 8.53
2 | COc1cncc(-c2ccc3c(C(=O)Nc4cnn(Cc5ccccn5)c4)n[nH]c3c2)c1 [Example 221, 6-(5-methoxy-3-pyridyl)-N-[1-(2-pyridylmethyl)py-razol-4-yl]-1H-indazole-3-carboxamide] | 7.29
3 | COc1cncc(-c2ccc3c(C(=O)Nc4cnn(CC5CCCCC5)c4)n[nH]c3c2)c1 [Example 222, N-[1-(cyclohexylmeth-yl)pyrazol-4-yl]-6-(5-methoxy-3-pyridyl)-1H-indazole-3-carboxamide] | 7.12
4 | COc1cncc(-c2ccc3c(C(=O)Nc4cnn(C(C)C)c4)n[nH]c3c2)c1 [Example 223, N-(1-isopropylpyrazol-4-yl)-6-(5-methoxy-3-pyridyl)-1H-indazole-3-carboxamide] | 7.05
5 | N#Cc1cccc(Cn2cc(NC(=O)c3n[nH]c4cc(-c5cncc(Cl)c5)ccc34)cn2)c1 [Example 224, 6-(5-chloro-3-pyridyl)-N-[1-[(3-cyanophenyl)meth-yl]pyrazol-4-yl]-1H-indazole-3-carboxamide] | 8.29
6 | O=C(Nc1cnn(Cc2cccnn2)c1)c1n[nH]c2cc(-c3cn[nH]c3)ccc12 [Example 225, 6-(1H-pyrazol-4-yl)-N-[1-(pyridazin-3-ylmethyl)pyrazol-4-yl]-1H-indazole-3-carboxamide] | 8.31
7 | O=C(Nc1cnn(Cc2cncnc2)c1)c1n[nH]c2cc(-c3cn[nH]c3)ccc12 [Example 226, 6-(1H-pyrazol-4-yl)-N-[1-(pyrimidin-5-ylmethyl)pyrazol-4-yl]-1H-indazole-3-carboxamide] | 8.95
8 | O=C(Nc1cnn(Cc2cnc(N3CCOCC3)nc2)c1)c1n[nH]c2cc(-c3cn[nH]c3)ccc12 [Example 227, N-[1-[(2-morpholinopy-rimidin-5-yl)methyl]pyrazol-4-yl]6-(1H-pyrazol-4-yl)-1H-indazole-3-carboxamide] | 8.63
9 | COCCN(C)CC(c1cccnc1)n1cc(NC(=O)c2n[nH]c3cc(-c4cncc(OC)c4)ccc23)cn1 (stereo not shown) [Example 228, N-[1-[2-[2-methoxyethyl(meth-yl)amino]-1-(3-pyridyl)ethyl]py-razol-4-yl]-6-(5-methoxy-3-pyridyl)-1H-indazole-3-carboxamide] | 8.26
10 | COCCN(C)CC(c1cccnc1)n1cc(NC(=O)c2n[nH]c3cc(-c4cncc(OC)c4)ccc23)cn1 (stereo not shown) [Example 229, N-[1-[2-[2-methoxyethyl(meth-yl)amino]-1-(3-pyridyl)ethyl]py-razol-4-yl]-6-(5-methoxy-3-pyridyl)-1H-indazole-3-carboxamide] | 7.49
11 | O=C(Nc1cnn(Cc2ccccc2)c1)c1n[nH]c2c(F)cccc12 [Example 230, N-(1-benzylpyrazol-4-yl)-7-fluoro-1H-indazole-3-carboxamide] | 6.14
12 | CN1CCOc2cc(-c3ccc4c(C(=O)Nc5cnn(Cc6cccnc6)c5)n[nH]c4c3)cnc21 [Example 231, 6-(4-methyl-2,3-dihydropyrido[3,2-b][1,4]oxazin-7-yl)-N-[1-(3-pyridylmethyl)py-razol-4-yl]-1H-indazole-3-carboxamide] | 7.39
13 | COc1cncc(-c2ccc3c(C(=O)Nc4cnn(C(CN5CCN(C)CC5)c5cccnc5)c4)n[nH]c3c2)c1 (stereo not shown) [Example 232, 6-(5-methoxy-3-pyridyl)-N-[1-[2-(4-methylpiperazin-1-yl)-1-(3-pyridyl)ethyl]py-razol-4-yl]-1H-indazole-3-carboxamide] | 7.50
14 | COc1cncc(-c2ccc3c(C(=O)Nc4cnn(C(CN(C)C)c5cccnc5)c4)n[nH]c3c2)c1 (stereo not shown) [Example 233, N-[1-[2-(dimethylamino)-1-(3-pyridyl)ethyl]py-razol-4-yl]-6-(5-methoxy-3-pyridyl)-1H-indazole-3-carboxamide] | 7.29
15 | COc1cncc(-c2ccc3c(C(=O)Nc4cnn(C(CN5CCN(C)CC5)c5cccnc5)c4)n[nH]c3c2)c1 (stereo not shown) [Example 234, 6-(5-methoxy-3-pyridyl)-N-[1-[2-(4-methylpiperazin-1-yl)-1-(3-pyridyl)ethyl]py-razol-4-yl]-1H-indazole-3-carboxamide] | 8.27
16 | CCC(CC)Cn1cc(NC(=O)c2n[nH]c3cc(-c4cn[nH]c4)ccc23)cn1 [Example 238, N-[1-(2-ethylbutyl)pyrazol-4-yl]-6-(1H-pyrazol-4-yl)-1H-indazole-3-carboxamide] | 8.55
17 | O=C(Nc1cnn(Cc2ccccc2)c1)c1n[nH]c2cc(-c3cn[nH]c3)cnc12 [Example 245, N-(1-benzylpyrazol-4-yl)-6-(1H-pyrazol-4-yl)-1H-pyrazolo[4,3-b]pyridine-3-carboxamide] | 7.72
18 | Cc1cccc(C(CCN(C)C)n2cc(NC(=O)c3n[nH]c4cc(-c5cn[nH]c5)ccc34)cn2)c1 (stereo not shown) [Example 246, N-[1-[3-(dimethylamino)-1-(m-tolyl)propyl]py-razol-4-yl]-6-(1H-pyrazol-4-yl)-1H-indazole-3-carboxamide] | 10.13
19 | CN(C)CCC(c1cccc(Cl)c1)n1cc(NC(=O)c2n[nH]c3cc(-c4cn[nH]c4)ccc23)cn1 (stereo not shown) [Example 247, N-[1-[1-(3-chlorophenyl)-3-(dimethylami-no)propyl]pyrazol-4-yl]-6-(1H-pyrazol-4-yl)-1H-indazole-3-carboxamide] | 9.90
20 | CN(C)CCC(c1cccc(C(F)(F)F)c1)n1cc(NC(=O)c2n[nH]c3cc(-c4cn[nH]c4)ccc23)cn1 (stereo not shown) [Example 248, N-[1-[3-(dimethylamino)-1-[3-(trifluorometh-yl)phenyl]propyl]py-razol-4-yl]-6-(1H-pyrazol-4-yl)-1H-indazole-3-carboxamide] | 9.89
21 | CN(C)CCC(c1cccc(Cl)c1)n1cc(NC(=O)c2n[nH]c3cc(-c4cn[nH]c4)ccc23)cn1 (stereo not shown) [Example 249, N-[1-[1-(3-chlorophenyl)-3-(dimethylami-no)propyl]pyrazol-4-yl]-6-(1H-pyrazol-4-yl)-1H-indazole-3-carboxamide] | 10.22
22 | N#Cc1cccc(Cn2cc(NC(=O)c3n[nH]c4cc(C(F)(F)F)ccc34)cn2)c1 [Example 250, N-[1-[(3-cyanophenyl)meth-yl]pyrazol-4-yl]-6-(trifluoromethyl)-1H-indazole-3-carboxamide] | 6.99

Results, then the molecule that gave them:

Row | pKi | Structure (SMILES)
23 | 8.33 | O=C(Nc1cnn(CC2CCOC2)c1)c1n[nH]c2cc(-c3cn[nH]c3)ccc12 (stereo not shown) [Example 235, 6-(1H-pyrazol-4-yl)-N-[1-(tetrahydrofuran-3-ylmethyl)pyrazol-4-yl]-1H-indazole-3-carboxamide]
24 | 8.22 | O=C(Nc1cnn(CC2CCC2)c1)c1n[nH]c2cc(-c3cn[nH]c3)ccc12 [Example 236, N-[1-(cyclobutylmeth-yl)pyrazol-4-yl]-6-(1H-pyrazol-4-yl)-1H-indazole-3-carboxamide]
25 | 8.43 | O=C(Nc1cnn(CC2COCCO2)c1)c1n[nH]c2cc(-c3cn[nH]c3)ccc12 (stereo not shown) [Example 237]
26 | 8.18 | O=C(Nc1cnn(CC2CCCO2)c1)c1n[nH]c2cc(-c3cn[nH]c3)ccc12 (stereo not shown) [Example 239, 6-(1H-pyrazol-4-yl)-N-[1-(tetrahydrofuran-2-ylmethyl)pyrazol-4-yl]-1H-indazole-3-carboxamide]
27 | 8.27 | O=C(Nc1cnn(CC2CC2)c1)c1n[nH]c2cc(-c3cn[nH]c3)ccc12 [Example 240, N-[1-(cyclopropylmeth-yl)pyrazol-4-yl]-6-(1H-pyrazol-4-yl)-1H-indazole-3-carboxamide]
28 | 8.55 | O=C(Nc1cnn(CC2CCCOC2)c1)c1n[nH]c2cc(-c3cn[nH]c3)ccc12 (stereo not shown) [Example 241, 6-(1H-pyrazol-4-yl)-N-[1-(tetrahydropyran-3-ylmethyl)pyrazol-4-yl]-1H-indazole-3-carboxamide]
29 | 8.61 | O=C(Nc1cnn(CC2CCOCC2)c1)c1n[nH]c2cc(-c3cn[nH]c3)ccc12 [Example 242]
30 | 8.61 | O=C(Nc1cnn(CC2CCCCC2)c1)c1n[nH]c2cc(-c3cn[nH]c3)ccc12 [Example 243, N-[1-(cyclohexylmeth-yl)pyrazol-4-yl]-6-(1H-pyrazol-4-yl)-1H-indazole-3-carboxamide]
31 | 8.30 | O=C(Nc1cnn(CC2CC3CCC2C3)c1)c1n[nH]c2cc(-c3cn[nH]c3)ccc12 (stereo not shown) [Example 251, N-[1-(norbornan-2-ylmethyl)pyrazol-4-yl]-6-(1H-pyrazol-4-yl)-1H-indazole-3-carboxamide]
32 | 8.45 | CC(C)CN1CCOC(Cn2cc(NC(=O)c3n[nH]c4cc(-c5cn[nH]c5)ccc34)cn2)C1 (stereo not shown) [Example 252, N-[1-[(4-isobutylmorpholin-2-yl)methyl]pyrazol-4-yl]-6-(1H-pyrazol-4-yl)-1H-indazole-3-carboxamide]
33 | 7.44 | CC1(Cn2cc(NC(=O)c3n[nH]c4cc(-c5cn[nH]c5)ccc34)cn2)COC1 [Example 253, N-[1-[(3-methyloxetan-3-yl)methyl]pyrazol-4-yl]-6-(1H-pyrazol-4-yl)-1H-indazole-3-carboxamide]
34 | 8.19 | CN1CCC(Cn2cc(NC(=O)c3n[nH]c4cc(-c5cn[nH]c5)ccc34)cn2)C1 (stereo not shown) [Example 254, N-[1-[(1-methylpyrrolidin-3-yl)methyl]pyrazol-4-yl]-6-(1H-pyrazol-4-yl)-1H-indazole-3-carboxamide]
